The values below come from patent US8008333B2, “Single dose aromatase inhibitor for treating infertility” (Ares Trading S.A., priority 2001, dated 2011).

The test system of data set [1] is endometrium of normal women. Particulars: reduction in glandular density, increase in vacuolated cells; cited from earlier work.
For data set [2], the system named is infertile patients (PCOS, unexplained infertility).
Text: HCG 10,000 IU was given to trigger ovulation. Follicular development was monitored by transvaginal ultrasound and hormonal assays of estrogen and LH.
The conditions of data set [3]: in vivo; cited from earlier work.
Another data set relates to ovulatory women. Particulars: ovulatory group, one patient; cited from earlier work.
The subject of another data set is women with PCOS. Particulars: PCOS group, cited from earlier work.
For data set [4], the system named is ovulatory women with unexplained infertility and anovulatory women with PCOS. Briefly: letrozole in conjunction with FSH for controlled ovarian super ovulation. Format: in vivo, human.
Data set [5] concerns low responders during ovarian stimulation. Description: letrozole with FSH stimulation in low responders. Format: in vivo, human.

Structures can show the parent of a compound that is named as a salt. Where two headings read alike, the source gives them in different places.

As to `CCN(CC)CCOc1ccc(C(=C(Cl)c2ccccc2)c2ccccc2)cc1` [CC, clomiphene citrate], the “effect on the endometrium” value in data set [1] is listed as “deleterious effect on the endometrium”.
With `N#Cc1ccc(C(c2ccc(C#N)cc2)n2cncn2)cc1` [letrozole], in data set [2] (Letrozole 5 days cycle), the “Endometrial thickness on hCG day” value is reported as 0.9 (0.2) cm, the “Estradiol on hCG day” value is listed as 919 (782) pmol/L, the Estradiol/mature follicle is 462 (257) pmol/L and the “Follicles >1.5 cm” value is reported as 1.9 (0.2). Moreover, the LH in data set [2] (Letrozole 5 days cycle) is listed as 18.2 (16.2) IU/L. Further, in data set [2] (Letrozole single-dose cycles), the “Endometrial thickness on hCG day” value is 0.9 (0.11) cm, the “Estradiol on hCG day” value is 831 (359) pmol/L, the Estradiol/mature follicle was 390 (74) pmol/L and the “Follicles >1.5 cm” value was 2.29 (1.3). The LH in data set [2] (Letrozole single-dose cycles) is 19.1 (12.7) IU/L. In data set [2] (single 20 mg dose on day 3, out of the 9 single-dose treatment cycles), this compound displayed an ovulation of 8 cycles. The pregnancy achieved entry in data set [2] (single 20 mg dose on day 3, seven patients) was “one”. In addition, the “characteristics of the single dose treatment cycles versus the 5-day treatment cycles” value in data set [2] (single 20 mg dose vs […] for 5 days) is given as “no significant difference”. For the same compound, the half-life result in data set [3] was “around two”. Also, the pregnancy in the data set with ovulatory women is recorded as 10%. Moreover, the pregnancy in the data set on women with PCOS (3 patients) is recorded as 25%. Moreover, the ovulation with women with PCOS (9 of 12 cycles) was 75%. In addition, the “FSH dose required for achievement of adequate ovarian super ovulation” value in data set [4] is “significantly lower”. The “ovarian response to FSH stimulation” value in data set [5] is listed as “improvement”.
